Results reported in US11350630B2, “1-amino-1-cyclopropanecarboxylic acid hydrochloride formulations” (Valent BioSciences LLC, priority 2017, dated 2022).
Each block holds one compound with its values, some of them ahead of it.

Key:
[1] = Non-aqueous solvent screening (solubility of ACC HCl); type: physicochemical; settings: about 21° C.
Method: ACC HCl salt was added at 1-gram increments to 1 liter of each of the solvents in Table 1 at about 21° C. while stirring until the salt would no longer solubilize.

[2] = Stable non-aqueous ACC HCl salt formulation (solubility, stability at 5° C.); type: physicochemical; settings: 13.6% ACC HCl salt, 84.4% propylene glycol, 2% Tween 20
Method: A formulation was prepared containing 13.6% ACC HCl salt, 84.4% propylene glycol and 2% Tween® 20.
Further, non-aqueous formulations of the present invention remained stable when placed at 5° C. Thus, specific non-aqueous formulations can stabilize ACC HCl salt.

[3] = Chemical stability of ACC HCl in select non-aqueous solvents, 54 C, 3 weeks; type: physicochemical; settings: for ACC HCl 3 weeks / ACC HCl % loss: 54 C, 3 weeks; for ACC HCl Initial: time 0
Method: Formulations were prepared with 14% w/w initial concentration of ACC HCl and […] Tween® 20 in each of the following solvents: 1,3 propanediol; ethylene glycol; diethylene glycol; dimethyl lactamide; and N-methyl pyrrolidone. Each formulation was then stored at 54 C for 3 weeks, which is the equivalent of storage for 3 years at room temperature. ACC HCl salt concentration was measured at time 0 and at 3 weeks.

[4] = Titration of ACC HCl salt solutions; type: physicochemical
Method: When ACC HCl salt was added to water to a concentration of 10% w/w ACC the pH was determined to be 1.0±0.3. The solution was then titrated with each of sodium hydroxide, N,N dimethyl ethanolamine, triethanolamine, choline hydroxide, ammonium hydroxide dimethyl amine, and triethyl tetramine to achieve more basic solutions.
Thus, ACC HCl salt solutions are inherently unstable at a pH range of 2.75 to 8.5.

cotton cotyledons = assay: Cotton cotyledon bioefficacy assay: effect of solution pH and ACC form on ethylene production; settings: for Ethylene Production: 250 ppm, 48 hours after spray
[5] = Chemical stability of ACC HCl in select non-aqueous solvents, 5 or 54 C, 2 weeks; type: physicochemical; settings: for % loss / ACC HCl 5 C., 2 weeks / ACC HCl 54 C., 2 weeks: 2 weeks; for ACC HCl Initial: time 0
Method: Formulations were prepared with 14% w/w initial concentration of ACC HCl and 2.5% w/w Tween® 20 in each of the following solvents: polyethylene glycol and propylene glycol. Each formulation was then stored at 5 or 54 C for 2 weeks, which is the equivalent of storage for 2 years at room temperature. ACC HCl salt concentration was measured at time 0 and at 2 weeks.

Gala apple = assay: Apple fruitlet thinning assay; type: in vivo
Method: Formulations 1-3 were diluted with water to 408 ppm ACC HCl salt (i.e. molar equivalent to 300 ppm ACC free acid) and applied to Gala apple fruit when mean fruit diameter was 20 mm along with ACC free acid at 300 ppm. The apple plants were allowed to reach fruit set and set fruits were counted and compared to an untreated control. Fruit set was calculated as the number of fruits which set on a sample of 100 flower clusters.

[6] = Surfactant screening for stable ACC HCl salt solutions (titration with potassium hydroxide); type: physicochemical; settings: addition at about 0.5% w/w
Method: The solution was then titrated with potassium hydroxide to achieve a more basic solution. Due to the exothermic nature of the titration process, titration occurred in a water bath maintained at a temperature of 20° C.±5° C.

[7] = Diethylene glycol with Tween 20
[8] = Dimethyl lactamide with Tween 20
[9] = N-methyl pyrrolidone with Tween 20
[10] = Polyethylene glycol with 2.5% w/w Tween 20, 5 C
[11] = Polyethylene glycol with 2.5% w/w Tween 20, 54 C
[12] = Propylene glycol with 2.5% w/w Tween 20, 5 C
[13] = Propylene glycol with 2.5% w/w Tween 20, 54 C

Compound: Cl.NC1(C(=O)O)CC1 [ACC HCl, 1-amino-1-cyclopropanecarboxylic acid hydrochloride salt]
- Measured Solubility of ACC HCl ([1]; 1,3-propane diol): 25 % w/w
- Measured Solubility of ACC HCl ([1]; Diethylene glycol monomethyl ether): 14 % w/w
- Measured Solubility of ACC HCl ([1]; Diethylene glycol): 25 % w/w
- Measured Solubility of ACC HCl ([1]; Dimethyl lactamide): 20 % w/w
- Measured Solubility of ACC HCl ([1]; Dipropylene glycol): 8 % w/w
- Measured Solubility of ACC HCl ([1]; Ethyl lactate): 14 % w/w
- Measured Solubility of ACC HCl ([1]; Ethylene glycol): 34 % w/w
- Measured Solubility of ACC HCl ([1]; Fatty alcohol ethoxylate): 14 % w/w
- Measured Solubility of ACC HCl ([1]; Glycerin): 14 % w/w
- Measured Solubility of ACC HCl ([1]; Monoacetin): 14 % w/w
- Measured Solubility of ACC HCl ([1]; N-methyl-2-pyrrolidinone): 20 % w/w
- Measured Solubility of ACC HCl ([1]; Polyethylene glycol 200): 21 % w/w
- Measured Solubility of ACC HCl ([1]; Polyethylene glycol 400): 14 % w/w
- Measured Solubility of ACC HCl ([1]; Polyethylene glycol 600): 14 % w/w
- Measured Solubility of ACC HCl ([1]; Polypropylene glycol): 14 % w/w
- Measured Solubility of ACC HCl ([1]; Propylene carbonate): <2 % w/w
- Measured Solubility of ACC HCl ([1]; Propylene glycol): 27 % w/w
- Measured Solubility of ACC HCl ([1]; The ester of 2-ethyl hexanol and natural lactic acid): 14 % w/w
- solubility in non-aqueous solvents [2]: soluble
- ACC HCl 3 weeks ([3]; 1,3 propanediol with Tween 20): 13.9 % w/w
- ACC HCl % loss ([3]; 1,3 propanediol with Tween 20): 1.7 % loss
- ACC HCl Initial ([3]; 1,3 propanediol with Tween 20): 14.14 % w/w
- ACC HCl 3 weeks [3, 7]: 13.8 % w/w
- ACC HCl % loss [3, 7]: 1.4 % loss
- ACC HCl Initial [3, 7]: ~14% w/w
- ACC HCl 3 weeks [3, 8]: 13.5 % w/w
- ACC HCl % loss [3, 8]: 2.9 % loss
- ACC HCl Initial [3, 8]: 13.9 % w/w
- ACC HCl 3 weeks ([3]; Ethylene glycol with Tween 20): 13.6 % w/w
- ACC HCl % loss ([3]; Ethylene glycol with Tween 20): 2.9 % loss
- ACC HCl Initial ([3]; Ethylene glycol with Tween 20): 14.0 % w/w
- ACC HCl 3 weeks [3, 9]: 13.9 % w/w
- ACC HCl % loss [3, 9]: 0.7 % loss
- ACC HCl Initial [3, 9]: 14.0 % w/w
- pH of solution ([4]; ACC HCl salt added to water to 10% w/w ACC): 1.0±0.3
- pH at which all precipitates dissolve into solution ([4]; further titration with base): above 9.0
- Ethylene Production (cotton cotyledons; solution pH 2.5): 26.9 nL/g FW/hr
- Ethylene Production (cotton cotyledons; solution pH 5.0): 16.5 nL/g FW/hr
- more ethylene generated at pH 2.5 than at pH 5.0 (cotton cotyledons; same solution, pH 2.5 vs pH 5.0): 65%
- % loss [5, 10]: −0.3%
- ACC HCl 5 C., 2 weeks [5, 10]: 14.20 % w/w
- % loss [5, 11]: 2.5%
- ACC HCl 54 C., 2 weeks [5, 11]: 13.81 % w/w
- ACC HCl Initial ([5]; Polyethylene glycol with 2.5% w/w Tween 20): 14.16 % w/w
- % loss [5, 12]: 0%
- ACC HCl 5 C., 2 weeks [5, 12]: 14.10 % w/w
- % loss [5, 13]: 6.7%
- ACC HCl 54 C., 2 weeks [5, 13]: 13.15 % w/w
- ACC HCl Initial ([5]; Propylene glycol with 2.5% w/w Tween 20): 14.10 % w/w

Compound: NC1(C(=O)O)CC1 [ACC free acid, 1-amino-1-cyclopropanecarboxylic acid]
- Fruit set (Gala apple; 408 ppm ACC HCl salt (formulations) or 300 ppm ACC free acid, mean fruit diameter 20 mm): 70 fruit/100 flower clusters
- reduction of fruit set (Gala apple; compared to untreated control): 20%
- Ethylene Production (cotton cotyledons; solution pH 2.5): 31.1 nL/g FW/hr
- Ethylene Production (cotton cotyledons; solution pH 5.0): 13.4 nL/g FW/hr

- solution stability of ACC HCl salt solution [6]: further enhanced solution stability
Compound: O=C(O)CN(CCN(CC(=O)O)CC(=O)O)CC(=O)O [EDTA, ethylenediaminetetraacetic acid]
